According to patent US20210371817A1, “COMPOSITIONS AND METHODS FOR PRECISE PATTERNING OF POSTERIOR NEUROECTODERM FROM HUMAN PLURIPOTENT STEM CELLS” (WISCONSIN ALUMNI RESEARCH FOUNDATION, priority 2013, published 2021):

Assays:
H9 hESCs = assay: HOX, OTX2 and T gene expression by RT-PCR/qPCR during hESC differentiation with morphogens; type: cell-based, human; details: neuromesodermal state
Description: hPSC differentiation. hPSCs were washed once with phosphate-buffered saline (PBS; Invitrogen), dissociated with ACCUTASE® (Invitrogen) for 3 min, and collected by centrifugation. hPSCs were then seeded onto VTN-NC-coated plates in E8 medium containing 10 μM ROCK inhibitor (Y27632; R&D Systems). Seeding density was 2×10^5 cells/cm^2. The following day, the cells were switched to E6 medium (same composition as E8 medium minus FGF2 and TGFβ 1). Morphogen treatments were then carried out according to the figures in the text. Cells were supplemented with FGF8b (100-200 ng/ml; Peprotech), CHIR99021 (3-6 μM; Tocris), and/or RA (3 μM; Sigma).
Reverse transcriptase polymerase chain reaction (RT-PCR). Total RNA was extracted from cells using TRIZOL® reagent (Invitrogen) according to the manufacturer's instructions. RNA was then subjected to reverse-transcription using a Thermoscript™ RT-PCR kit (Invitrogen) in a 20 μL mixture according to the manufacturer's instructions. The resulting cDNA was then amplified in a 25 μL mixture containing 10×PCR buffer, 0.2 mM dNTP, 1.5 mM MgCl2, 0.5 μM of each primer, and 1 U Taq DNA polymerase (Invitrogen). Amplified products were resolved on 2% agarose gels containing SYBR Safe (Invitrogen) and visualized with a VersaDoc (BioRad). Primer sequences can be found in Table 3. All amplifications were carried out for 35 cycles. HOXC5 and HOXC6 were amplified at 58° C., all others with an annealing temperature of 55° C.
Propagation and differentiation of neuromesodermal progenitors. H9 hESCs (passage 25-45), H9 ishcat2 hESCs (passage 33-43), and IMR90-4 iPSCs (passage 31-40) were maintained in E8 medium on MATRIGEL© (BD Biosciences) as previously described. To initiate differentiation, hPSCs were passaged with ACCUTASE© (Life Technologies) onto vitronectin (VTN-NC)-coated plates at a density of 1×10^5 cells/cm^2 as previously described. The following day, cells were changed to E6 medium. 24 h later, cells were changed to E6 medium containing 200 ng/ml FGF8b (Peprotech). 24 h later, cells were washed once with 2 ml PBS, treated with ACCUTASE® for 2 min, and removed from the surface by gentle pipetting. After collection by centrifugation, cells were gently resuspended in E6 medium containing 200 ng/ml FGF8b and CHIR99021 (CHIR, concentration varied depending on cell line; Tocris) and re-seeded on VTN-NC-coated plates at a density of 1.5×10^5 cells/cm^2. Medium was not changed until 48 h after passaging. This passaging process was repeated on day 3 of CHIR 99021 treatment (re-seed density of 1.2×10^5 cells/cm^2) if extended neuromesodermal propagation was required, and 50 ng/ml GDF11 (Peprotech) was added on day 4 of CHIR 99021 treatment to initiate lumbar patterning. Cells were changed to E6 medium containing 1 μM retinoic acid (RA; Sigma) to facilitate neural transition.
qPCR. Total RNA was extracted from cultured cells using TRIZOL® (Life Technologies) according to the manufacturer's instructions. After isolation, 2-5 μg of total RNA was immediately subjected to reverse transcription using the Thermoscript™ RT-PCR kit (Life Technologies) in a 20 μL reaction according to the manufacturer's instructions. […] For all experiments, ΔΔCt values for each gene were calculated relative to ribosomal protein S18 (RPS18) RNA levels and converted to fold difference assuming 100% primer efficiency, then normalized to maximum expression levels as indicated in each figure legend. […]

neuromesodermal cells = assay: Pax6 and HoxD10 expression after GDF11 with or without dorsomorphin, then RA; type: cell-based, human; details: GDF11 present in the neuromesodermal morphogen cocktail
Source text: (FIG. 7A) Timeline of differentiation. (FIG. 7B) qPCR assessment of lumbar/sacral gene expression at day 12. A minimum concentration of GDF11 is required to activate HoxD10 and HoxA11. Each gene is normalized to the maximum GDF11 dose. Error bars are standard deviation calculated from duplicate reactions. (FIG. 7C) Expression of Pax6 in response to increased GDF11 concentrations. Data were collected by flow cytometry and represented as mean±standard deviation calculated from two biological replicates. Sox2 was uniformly expressed regardless of GDF11 treatment (data not shown). […] Grey histograms, IgG control; Red histograms, Pax6. Data are representative of two biological replicates. […] Percentages were quantified as HoxD10 labeling relative to DAPI-stained nuclei (>2500 total cells counted per sample). Scale bars, 100 μm
After neural tube closure in vivo, opposing gradients of TGFβ and SHH signaling produce distinct dorsal and ventral domains from which sensory neurons, interneurons, and motor neurons arise. Pax6, which has been identified as a neuroectoderm fate determinant, is expressed throughout most of the neural tube but is absent from the most dorsal and ventral domains. […] The ability of GDF11 to control rostral/caudal patterning is mediated by signaling via ALK5 and activation of the SMAD2/3 complex. […]

Substance: GDF11: Growth differentiation factor 11, a TGFβ family member
- Expression of hindbrain/cervical genes HOXA4, HOXB4, HOXC6 (H9 hESCs; data not shown): did not repress
- Activation of lumbar and sacral HOX paralogs (H9 hESCs; qPCR, GDF11 50 ng/ml): necessary for robust activation of lumbar (HOX10) and sacral (HOX11) paralogs
- Pax6 expression after RA (neuromesodermal cells): decreased
